Source: patent publication US12527739B2 (Alcon Inc., priority 2022, dated 2026)

What was measured:
[1] = system: form deprivation-induced myopia (FDM); test: Form deprivation-induced myopia (FDM) chick model; format: in vivo
[2] = Solubility screen in two simple vehicles, pH 7.4; settings: for pH of the formulation / Actual Concentration: pH 7.4; for Actual Concentration: 5 min vortexing
[3] = pH adjustment of methyl atropine and benzyl atropine solutions, HPLC analysis; format: physicochemical; settings: for Actual concentration (HPLC) / pH after incubation (24 hours): after pH adjustment; for Initial pH: before pH adjustment
[4] = Solubility of benzyl atropine in surfactants (single excipients); format: physicochemical
Protocol: Initially, single excipients were evaluated (Table 8).

[5] = HPβCD as a solubilizer for benzyl atropine; format: physicochemical; settings: pH 3.1
[6] = Solubilizing mixtures with citrate and acetate buffers; settings: for Actual Conc. / Final pH: 7.0% PEG-40 Stearate, 5.0% PEG-35 Castor Oil
M1 muscarinic receptor = biological target: T1, M1 muscarinic receptor (Homo sapiens, UniProt P11229); test: Muscarinic receptor radioligand displacement binding, M1
T1 sequence (P11229 1-460): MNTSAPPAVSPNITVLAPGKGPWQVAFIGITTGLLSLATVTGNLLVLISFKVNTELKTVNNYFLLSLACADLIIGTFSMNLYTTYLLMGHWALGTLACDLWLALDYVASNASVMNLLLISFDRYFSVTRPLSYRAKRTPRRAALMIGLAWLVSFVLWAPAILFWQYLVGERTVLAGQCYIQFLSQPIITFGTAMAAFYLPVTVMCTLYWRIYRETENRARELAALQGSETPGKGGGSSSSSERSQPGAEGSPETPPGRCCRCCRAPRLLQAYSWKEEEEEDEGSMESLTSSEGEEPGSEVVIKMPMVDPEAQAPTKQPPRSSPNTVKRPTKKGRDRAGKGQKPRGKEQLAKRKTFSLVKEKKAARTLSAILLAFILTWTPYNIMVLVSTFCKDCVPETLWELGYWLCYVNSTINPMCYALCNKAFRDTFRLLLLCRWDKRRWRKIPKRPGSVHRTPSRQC

[7] = Concentration of benzyl atropine in surfactant mixtures; format: physicochemical
M4 muscarinic receptor = biological target: T2, M4 muscarinic receptor (Homo sapiens, UniProt P08173); test: Muscarinic receptor radioligand displacement binding, M4
T2 sequence (P08173 1-479): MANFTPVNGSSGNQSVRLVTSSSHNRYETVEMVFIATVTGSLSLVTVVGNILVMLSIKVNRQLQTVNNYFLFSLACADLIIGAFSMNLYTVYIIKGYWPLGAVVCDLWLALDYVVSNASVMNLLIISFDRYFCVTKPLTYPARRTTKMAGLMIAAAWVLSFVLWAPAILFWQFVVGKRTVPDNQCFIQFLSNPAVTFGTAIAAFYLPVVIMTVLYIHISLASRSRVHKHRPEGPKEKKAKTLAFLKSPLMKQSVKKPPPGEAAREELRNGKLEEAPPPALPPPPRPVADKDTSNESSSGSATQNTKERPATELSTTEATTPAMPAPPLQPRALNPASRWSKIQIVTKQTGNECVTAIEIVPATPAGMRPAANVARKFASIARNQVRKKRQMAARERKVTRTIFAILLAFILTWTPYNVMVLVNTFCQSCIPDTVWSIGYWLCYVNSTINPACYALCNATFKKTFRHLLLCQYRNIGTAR

M2 muscarinic receptor = biological target: T3, M2 muscarinic receptor (Homo sapiens, UniProt P08172); test: Muscarinic receptor radioligand displacement binding, M2
T3 sequence (P08172 1-466): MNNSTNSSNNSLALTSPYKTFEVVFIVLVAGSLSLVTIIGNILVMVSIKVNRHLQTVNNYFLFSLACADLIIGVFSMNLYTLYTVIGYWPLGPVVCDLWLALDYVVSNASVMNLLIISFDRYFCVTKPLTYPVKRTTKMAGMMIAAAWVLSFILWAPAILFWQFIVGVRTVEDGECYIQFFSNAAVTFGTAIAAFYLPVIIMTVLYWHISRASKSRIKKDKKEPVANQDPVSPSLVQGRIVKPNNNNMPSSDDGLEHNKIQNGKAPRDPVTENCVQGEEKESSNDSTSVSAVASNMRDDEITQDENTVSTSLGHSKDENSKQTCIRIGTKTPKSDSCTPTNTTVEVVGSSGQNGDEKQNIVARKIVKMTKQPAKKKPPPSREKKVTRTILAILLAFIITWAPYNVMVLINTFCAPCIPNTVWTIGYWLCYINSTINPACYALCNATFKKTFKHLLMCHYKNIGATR

[8] = 0.43% Sodium Chloride, 10.0% HPβCD in 20 mM Phosphate Buffer
[9] = 2.21% Mannitol, 10.0% HPβCD in 20 mM Phosphate Buffer
[10] = 2.5% HPβCD in 20 mM Phosphate Buffer
[11] = 5.0% HPβCD in 20 mM Phosphate Buffer
[12] = 10.0% HPβCD in 20 mM Phosphate Buffer
[13] = 20 mM Citrate Buffer, pH 3.0 before API, 5.0% PEG-400
[14] = 20 mM Citrate Buffer, pH 4.65 before API, 5.0% PEG-400
[15] = 30 mM Acetate Buffer, pH 4.38 before API, 3.5% PEG-400
[16] = 30 mM Acetate Buffer, pH 4.56 before API, 3.5% PEG-400
[17] = 30 mM Acetate Buffer, pH 5.11 before API, 5.0% PEG-400
[18] = 0.3% Tyloxapol in Phosphate Buffer, pH 2.8
[19] = 2.0% Poloxamer 407 in Phosphate Buffer, pH 2.8
[20] = 4.0% Tween 80 in Phosphate Buffer, pH 2.9
[21] = 5.0% PEG-35 Castor Oil in Acetic Acid Buffer, pH 2.8
[22] = 5.0% PEG-35 Castor Oil in Phosphate Buffer, pH 2.8
[23] = 7.0% PEG0-40 Stearate in Phosphate Buffer, pH 3.0
[24] = 20% DMSO in Phosphate Buffer, pH 2.7
[25] = 50% Glycerol in Phosphate Buffer in Phosphate Buffer, pH 2.5
[26] = 50% Propylene Glycol in Phosphate Buffer, pH 2.9

SMILES: CN1C2CCC1CC(OC(=O)C(CO)(Cc1ccccc1)c1ccccc1)C2 (racemic) [Benzyl Atropine, benzyl atropine]
- efficacy compared with atropine in FDM chick model ([1]; at approximately ten-fold lower concentration than atropine, FIG. 1 Panel B (24 nmol vs 240 nmol)): as effective as atropine
- efficacy in FDM chick model ([1]; intravitreal injection day 2 and day 4, readout day 5, FIG. 1 Panel A): effective
- change in refractive error (goggled eye value minus ungoggled eye value) ([1]; with respect to 5% v/v ethanol solution, FIG. 1 Panel A): significantly decreased
- pH of the formulation ([2]; 30 mM Phosphate Buffer): 7.9
- Actual Concentration ([2]; 30 mM Phosphate Buffer): 0.29 mg/g
- pH of the formulation ([2]; Phosphate Buffered Saline): 8.0
- Actual Concentration ([2]; Phosphate Buffered Saline): 0.30 mg/g
- dissolution in vehicle (in words) ([2]; both vehicles: 30 mM phosphate buffer pH 7.4 and phosphate-buffered saline pH 7.4): did not entirely dissolve
- Actual concentration (HPLC) ([3]; 30 mM Phosphate Buffer, pH 7.4): 0.05 mg/g
- pH after incubation (24 hours) ([3]; 30 mM Phosphate Buffer, pH 7.4): 6.23
- Initial pH ([3]; 30 mM Phosphate Buffer, pH 7.4): 7.7
- Actual concentration (HPLC) ([3]; Phosphate Buffered Saline): 0.04 mg/g
- pH after incubation (24 hours) ([3]; Phosphate Buffered Saline): 5.7
- Initial pH ([3]; Phosphate Buffered Saline): 7.7
- dissolution upon pH adjustment (in words) ([3]; lowered pH of the vehicle): did not fully dissolve
- Actual Concentration ([4]; 50% Propylene Glycol in 30 mM Phosphate Buffer, pH 7.4): 1.85 mg/g
- Actual Concentration ([4]; PEG-400 (neat)): 8.01 mg/g
- drug solubility ([4]; PEG-400 (neat)): 0.8%
- Actual Concentration ([4]; Polypropylene Glycol (neat)): 7.86 mg/g
- Actual Concentration ([4]; Propylene Glycol (neat)): 6.96 mg/g
- Actual Concentration [5, 8]: 5.92 mg/g
- Final pH [5, 8]: 5.8
- Actual Concentration [5, 9]: 5.23 mg/g
- Final pH [5, 9]: 5.7
- Concentration Dissolved [5, 10]: 3.53 mg/g
- Final pH [5, 10]: 7.1
- Concentration Dissolved [5, 11]: 4.16 mg/g
- Final pH [5, 11]: 7.0
- Concentration Dissolved [5, 12]: 4.51 mg/g
- Final pH [5, 12]: 7.1
- Actual Conc. [6, 13]: 5.73 mg/g
- Final pH [6, 13]: 4.4
- Actual Conc. [6, 14]: 2.38 mg/g
- Final pH [6, 14]: 5.8
- Actual Conc. [6, 15]: 5.49 mg/g
- Final pH [6, 15]: 4.9
- Actual Conc. [6, 16]: 5.42 mg/g
- Final pH [6, 16]: 5.5
- Actual Conc. [6, 17]: 3.59 mg/g
- Final pH [6, 17]: 7.7
- saturated solubility limit ([6]; from stability assessment, compound crashed out of solution over storage): ~5 mg/g
- Ki (M1 muscarinic receptor): 830 nM
- binding to the receptor (in words) (M1 muscarinic receptor): bind weakly
- Actual Concentration [7, 18]: 0.19 mg/g
- pH after API Dissolution [7, 18]: 7.3
- Actual Concentration [7, 19]: 0.20 mg/g
- pH after API Dissolution [7, 19]: 7.4
- Actual Concentration [7, 20]: 0.58 mg/g
- pH after API Dissolution [7, 20]: 7.3
- Actual Concentration [7, 21]: 1.16 mg/g
- pH after API Dissolution [7, 21]: 3.1
- Actual Concentration [7, 22]: 0.68 mg/g
- pH after API Dissolution [7, 22]: 7.3
- Actual Concentration [7, 23]: 0.47 mg/g
- pH after API Dissolution [7, 23]: 7.4
- Actual Concentration [7, 24]: 0.30 mg/g
- pH after API Dissolution [7, 24]: 8.1
- Actual Concentration [7, 25]: 0.84 mg/g
- pH after API Dissolution [7, 25]: 7.6
- Actual Concentration [7, 26]: 1.56 mg/g
- pH after API Dissolution [7, 26]: 8.3
- Ki (M4 muscarinic receptor): 600 nM
- binding to the receptor (in words) (M4 muscarinic receptor): bind weakly
- binding to the receptor (in words) (M2 muscarinic receptor): not to bind at all
